Assay results taken from paper PMC10569638 (PLOS ONE, 2023).
Like-named read-outs stand apart in the source and are kept apart here.

Experiments:
Type in all cases: cell-based
[1] = biological target: T1, zebrafish αβδε nAChR (ε-type) (Danio rerio, UniProt A2BG85+Q75XT1+Q98880); experiment: TEVC inhibition of ACh-elicited nAChR current in Xenopus oocytes, ε-type; settings: for Hill coefficient: inhibition, ε-type
Procedure: (§1) The bath solution was ND96. […] Oocytes were incubated around 30 sec in the bath solution containing inhibitors of identical concentration. Recordings were performed at room temperature. Holding potential was -80 mV. Vecuronium and rocuronium were purchased from Tokyo Chemical Industry. Pancuronium and d-tubocurarine were purchased from Alomone Labs and FUJIFILM Wako Chemicals, respectively.
(§2) Fitting algorism is identical to that of ACh.

[2] = biological target: T2, zebrafish αβδ nAChR (δ-type) (Danio rerio, UniProt Q75XT1+Q98880); experiment: TEVC inhibition of ACh-elicited nAChR current in Xenopus oocytes, δ-type; settings: for Hill coefficient: inhibition, δ-type
T2 sequence (Q98880 21-456): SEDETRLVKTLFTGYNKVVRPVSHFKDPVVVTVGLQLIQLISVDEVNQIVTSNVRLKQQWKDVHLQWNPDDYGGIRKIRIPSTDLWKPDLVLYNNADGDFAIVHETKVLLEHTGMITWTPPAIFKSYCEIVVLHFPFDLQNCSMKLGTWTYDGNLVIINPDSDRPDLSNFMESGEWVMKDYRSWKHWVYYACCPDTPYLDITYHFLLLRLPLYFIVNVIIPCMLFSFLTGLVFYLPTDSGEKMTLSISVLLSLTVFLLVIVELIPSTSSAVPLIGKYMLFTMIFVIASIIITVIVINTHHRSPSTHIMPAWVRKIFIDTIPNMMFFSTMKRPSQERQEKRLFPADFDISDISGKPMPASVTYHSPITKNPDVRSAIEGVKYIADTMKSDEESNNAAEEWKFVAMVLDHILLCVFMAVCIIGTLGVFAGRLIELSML
T2 sequence (Q75XT1 22-518): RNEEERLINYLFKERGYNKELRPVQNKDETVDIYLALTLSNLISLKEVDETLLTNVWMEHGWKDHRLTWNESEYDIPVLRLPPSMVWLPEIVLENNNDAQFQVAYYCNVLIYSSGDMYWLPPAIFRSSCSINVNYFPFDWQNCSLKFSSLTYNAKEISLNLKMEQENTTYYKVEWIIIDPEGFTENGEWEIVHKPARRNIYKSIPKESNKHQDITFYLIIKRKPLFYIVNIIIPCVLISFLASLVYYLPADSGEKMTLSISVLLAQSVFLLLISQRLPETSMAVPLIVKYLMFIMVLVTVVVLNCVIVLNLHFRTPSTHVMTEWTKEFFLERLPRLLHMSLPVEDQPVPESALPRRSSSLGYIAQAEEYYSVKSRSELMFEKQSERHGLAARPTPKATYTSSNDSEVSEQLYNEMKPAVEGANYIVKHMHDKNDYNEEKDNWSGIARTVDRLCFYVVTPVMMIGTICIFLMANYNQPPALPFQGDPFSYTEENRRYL
T2 sequence (G1FMP8 23-492 partner): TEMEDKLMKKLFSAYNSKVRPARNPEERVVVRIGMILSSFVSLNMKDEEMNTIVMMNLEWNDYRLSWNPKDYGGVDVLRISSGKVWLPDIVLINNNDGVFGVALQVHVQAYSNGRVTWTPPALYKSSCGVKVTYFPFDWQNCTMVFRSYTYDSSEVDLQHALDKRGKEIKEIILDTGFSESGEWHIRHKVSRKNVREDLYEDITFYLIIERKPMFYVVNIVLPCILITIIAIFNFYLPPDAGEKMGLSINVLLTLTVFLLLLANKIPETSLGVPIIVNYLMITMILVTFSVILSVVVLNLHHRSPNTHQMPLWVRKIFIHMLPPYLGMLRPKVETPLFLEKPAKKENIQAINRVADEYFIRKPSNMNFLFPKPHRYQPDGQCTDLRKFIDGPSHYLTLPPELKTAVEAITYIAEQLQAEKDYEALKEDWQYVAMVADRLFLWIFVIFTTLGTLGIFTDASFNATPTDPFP
Procedure: as §1, §2

[3] = biological target: zebrafish nAChR containing δ/δ/ε chimeric subunit (Danio rerio, UniProt A2BG85+Q75XT1+Q98880); experiment: TEVC inhibition of nAChR current, α, β, δ + δ/δ/ε chimera; settings: 100 μM ACh, mean ± sem
Procedure: as §1, §2

[4] = biological target: zebrafish nAChR containing ε/δ/δ chimeric subunit (Danio rerio, UniProt A2BG85+Q75XT1+Q98880); experiment: TEVC inhibition of nAChR current, α, β, δ + ε/δ/δ chimera; settings: mean ± sem
Sequence of zebrafish nAChR containing ε/δ/δ chimeric subunit (A2BG85 1-234, stated change not applied): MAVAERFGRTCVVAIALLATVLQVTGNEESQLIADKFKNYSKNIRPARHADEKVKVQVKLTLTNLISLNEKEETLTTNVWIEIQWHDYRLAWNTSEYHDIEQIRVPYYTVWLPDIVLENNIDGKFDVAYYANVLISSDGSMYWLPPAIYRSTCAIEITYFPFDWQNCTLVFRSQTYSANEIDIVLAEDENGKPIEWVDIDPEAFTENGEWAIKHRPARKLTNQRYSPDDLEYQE
Sequence of zebrafish nAChR containing ε/δ/δ chimeric subunit (Q75XT1 235-518, stated change not applied): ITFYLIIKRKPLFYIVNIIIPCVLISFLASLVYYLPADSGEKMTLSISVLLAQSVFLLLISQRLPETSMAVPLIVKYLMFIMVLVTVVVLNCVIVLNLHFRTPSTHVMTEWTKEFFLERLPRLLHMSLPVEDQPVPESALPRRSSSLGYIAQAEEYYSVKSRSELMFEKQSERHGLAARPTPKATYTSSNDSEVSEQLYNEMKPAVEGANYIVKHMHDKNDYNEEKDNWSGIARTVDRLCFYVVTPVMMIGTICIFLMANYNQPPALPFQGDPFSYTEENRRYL
Sequence of zebrafish nAChR containing ε/δ/δ chimeric subunit (Q98880 21-456, stated change not applied): as the sequence (Q98880 21-456) above
Sequence of zebrafish nAChR containing ε/δ/δ chimeric subunit (Q75XT1 235-518, stated change not applied): as the sequence (Q75XT1 235-518, stated change not applied) above
Sequence of zebrafish nAChR containing ε/δ/δ chimeric subunit (G1FMP8 23-492 partner): as the sequence (G1FMP8 23-492 partner) above
Procedure: as §1, §2

[5] = biological target: T1, zebrafish αβδε nAChR (ε-type); experiment: Voltage-dependent block tested by ramp pulses, ε-type; settings: 20 nM pancuronium
Procedure: (§3) To examine possible pore blocking activity of pancuronium, the voltage-dependent block was tested by ramp pulses in the presence of pancuronium.
(§4) Fig 10 Voltage-dependent change of the conductance in the presence and absence of pancuronium. (A1), (B1), Representative current traces of the ε-type (A1) and the δ-type (B1). The black and gray traces are in the absence and the presence of 20 nM pancuronium, respectively. Pulse protocols are shown at the bottom. (A2), (B2), Representative I-V curves of the ε-type (A2) and the δ-type (B2). (A3), (B3), G-V curves of the ε-type (A3) and the δ-type (B3). Data were normalized by the conductance at -100 mV. Data are shown as mean ± sem. (N = 9 for all data).

[6] = biological target: zebrafish nAChR containing ε/δ/ε chimeric subunit (Danio rerio, UniProt A2BG85+Q75XT1+Q98880); experiment: TEVC inhibition of nAChR current, α, β, δ + ε/δ/ε chimera; settings: 100 μM ACh, mean ± sem
Procedure: as §1, §2

[7] = biological target: zebrafish nAChR containing δ/ε/δ chimeric subunit (Danio rerio, UniProt A2BG85+Q75XT1+Q98880); experiment: TEVC inhibition of nAChR current, α, β, δ + δ/ε/δ chimera; settings: 100 μM ACh, mean ± sem
Procedure: as §1, §2

[8] = biological target: T2, zebrafish αβδ nAChR (δ-type); experiment: Voltage-dependent block tested by ramp pulses, δ-type; settings: 20 nM pancuronium
Procedure: as §3, §4

[9] = biological target: zebrafish nAChR containing ε/ε/δ chimeric subunit (Danio rerio, UniProt A2BG85+Q75XT1+Q98880); experiment: TEVC inhibition of nAChR current, α, β, δ + ε/ε/δ chimera; settings: 100 μM ACh, mean ± sem
Procedure: as §1, §2

[10] = biological target: zebrafish nAChR containing δ/ε/ε chimeric subunit (Danio rerio, UniProt A2BG85+Q75XT1+Q98880); experiment: TEVC inhibition of nAChR current, α, β, δ + δ/ε/ε chimera; settings: mean ± sem
Sequence of zebrafish nAChR containing δ/ε/ε chimeric subunit (Q75XT1 1-234, stated change not applied): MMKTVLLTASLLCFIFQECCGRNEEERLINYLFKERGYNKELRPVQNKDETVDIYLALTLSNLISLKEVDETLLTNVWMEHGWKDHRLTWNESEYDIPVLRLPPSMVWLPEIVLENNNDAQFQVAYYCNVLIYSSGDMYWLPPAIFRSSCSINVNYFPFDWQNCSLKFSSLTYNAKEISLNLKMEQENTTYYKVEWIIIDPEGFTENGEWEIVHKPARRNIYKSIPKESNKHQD
Sequence of zebrafish nAChR containing δ/ε/ε chimeric subunit (A2BG85 235-517, stated change not applied): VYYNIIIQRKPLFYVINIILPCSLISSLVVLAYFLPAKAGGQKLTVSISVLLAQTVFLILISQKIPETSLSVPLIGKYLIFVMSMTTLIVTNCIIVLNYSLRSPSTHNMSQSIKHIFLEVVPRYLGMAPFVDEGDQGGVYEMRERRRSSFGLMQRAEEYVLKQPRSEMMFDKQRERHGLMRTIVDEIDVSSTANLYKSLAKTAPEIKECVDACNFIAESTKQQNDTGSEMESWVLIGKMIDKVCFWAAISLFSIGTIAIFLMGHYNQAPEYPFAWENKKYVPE
Sequence of zebrafish nAChR containing δ/ε/ε chimeric subunit (Q98880 21-456, stated change not applied): as the sequence (Q98880 21-456) above
Sequence of zebrafish nAChR containing δ/ε/ε chimeric subunit (Q75XT1 1-234, stated change not applied): as the sequence (Q75XT1 1-234, stated change not applied) above
Sequence of zebrafish nAChR containing δ/ε/ε chimeric subunit (G1FMP8 23-492 partner): as the sequence (G1FMP8 23-492 partner) above
Procedure: as §1, §2

[11] = IC50, ε-type, current elicited by 100 μM ACh, -80 mV, mean ± sem
[12] = IC50, δ-type, current elicited by 100 μM ACh, -80 mV, mean ± sem

T1 sequence (Q98880 21-456): as the sequence (Q98880 21-456) above
T1 sequence (Q75XT1 22-518): as the sequence (Q75XT1 22-518) above
T1 sequence (A2BG85 27-517): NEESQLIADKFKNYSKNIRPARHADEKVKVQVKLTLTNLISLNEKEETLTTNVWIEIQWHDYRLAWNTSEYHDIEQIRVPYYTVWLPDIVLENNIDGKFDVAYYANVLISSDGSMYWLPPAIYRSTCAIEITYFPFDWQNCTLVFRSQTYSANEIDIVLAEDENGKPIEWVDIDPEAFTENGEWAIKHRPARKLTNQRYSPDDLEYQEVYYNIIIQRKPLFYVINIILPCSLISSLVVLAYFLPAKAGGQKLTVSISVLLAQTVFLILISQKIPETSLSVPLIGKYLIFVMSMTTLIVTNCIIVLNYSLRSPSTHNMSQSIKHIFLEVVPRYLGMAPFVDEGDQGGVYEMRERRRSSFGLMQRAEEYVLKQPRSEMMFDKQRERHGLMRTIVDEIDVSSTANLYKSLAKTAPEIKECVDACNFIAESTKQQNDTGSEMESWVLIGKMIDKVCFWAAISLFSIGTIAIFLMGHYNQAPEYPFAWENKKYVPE
T1 sequence (G1FMP8 23-492 partner): as the sequence (G1FMP8 23-492 partner) above

`C=CC[N+]1([C@H]2C[C@H]3[C@@H]4CC[C@H]5C[C@H](O)[C@@H](N6CCOCC6)C[C@]5(C)[C@H]4CC[C@]3(C)[C@H]2OC(C)=O)CCCC1` [rocuronium] was tested, and the IC50 [1, 11] was 4.7 ± 0.7 nM, the Hill coefficient ([1]; 100 μM ACh, mean ± sem) was 0.7 ± 0.1 and the IC50 [2, 12] was 4.2 ± 0.7 nM. For the same compound, the Hill coefficient ([2]; 100 μM ACh, mean ± sem) was 1.1 ± 0.1.
In the case of `CC(=O)O[C@H]1C[C@@H]2CC[C@@H]3[C@H](CC[C@@]4(C)[C@H]3C[C@H]([N+]3(C)CCCCC3)[C@@H]4OC(C)=O)[C@@]2(C)C[C@@H]1N1CCCCC1` [vecuronium], the IC50 [1, 11] is reported as 1.1 ± 0.2 nM, the Hill coefficient ([1]; 100 μM ACh, mean ± sem) is reported as 1.3 ± 0.2 and the IC50 [2, 12] is reported as 0.7 ± 0.1 nM. For the same compound, the Hill coefficient ([2]; 100 μM ACh, mean ± sem) was 1.0 ± 0.1.
`COc1cc2c3cc1Oc1cc(ccc1O)C[C@@H]1c4c(cc(OC)c(O)c4Oc4ccc(cc4)C[C@@H]3N(C)CC2)CC[N+]1(C)C` [d-tubocurarine] was tested, and the IC50 [1] was 112 ± 8.2 nM, the Hill coefficient ([1]; 100 μM ACh, mean ± sem) was 1.2 ± 0.1 and the IC50 [2] was 123 ± 18.7 nM. For the same compound, the Hill coefficient ([2]; 100 μM ACh, mean ± sem) was 1.1 ± 0.1.
In the case of `CC(=O)O[C@H]1C[C@@H]2CC[C@@H]3[C@H](CC[C@@]4(C)[C@H]3C[C@H]([N+]3(C)CCCCC3)[C@@H]4OC(C)=O)[C@@]2(C)C[C@@H]1[N+]1(C)CCCCC1` [pancuronium], the Hill coefficient [3] is reported as 1.0 ± 0.1, the Hill coefficient ([4]; 100 μM ACh) is reported as 1.7 ± 0.5 and the Hill coefficient ([4]; by 2 μM ACh) is reported as 1.4 ± 0.5. It also gave an IC50 ([1]; IC50, ε-type, by 2 μM ACh, mean ± sem) of 12.5 ± 1.9 nM, an IC50 [1, 11] of 15.6 ± 1 nM and a Hill coefficient ([1]; 100 μM ACh, mean ± sem) of 1.1 ± 0.1. For the same compound, the Hill coefficient ([1]; by 2 μM ACh, mean ± sem) was 1.1 ± 0.2, the voltage-dependent block [5] was “the specific blockage of outward or inward current by pancuronium was not observed” and the Hill coefficient [6] was 0.9 ± 0.1. For the same compound, the Hill coefficient [7] was 1.0 ± 0.1, the voltage-dependent block [8] was “voltage dependency of block was again not observed” and the IC50 ([2]; IC50, δ-type, by 2 μM ACh, mean ± sem) was 109 ± 30.9 nM. It also gave an IC50 [2, 12] of 116 ± 29.2 nM, a Hill coefficient ([2]; 100 μM ACh, mean ± sem) of 1.3 ± 0.4 and a Hill coefficient ([2]; by 2 μM ACh, mean ± sem) of 1.1 ± 0.2. For the same compound, the Hill coefficient [9] was 1.8 ± 0.3, the Hill coefficient ([10]; 100 μM ACh) was 1.0 ± 0.0 and the Hill coefficient ([10]; by 2 μM ACh) was 1.8 ± 1.0.
